In publication PMC12848717, “Discovery of Encrypted Peptides in a Human Matrix Metallopeptidase” (JACS Au, 2025):
Like-named read-outs stand apart in the source and are kept apart here. Square brackets hold non-standard residues; d marks the D form. Ends that are not written are not given here. Peptide text beside a SMILES is read from it.

Legend:
A. baumannii ATCC 19606 [1] = assay: time-kill (killing kinetic) assay; format: cell-based; settings: Fig 7D
[2] = test system: S. epidermidis ATCC 35984; assay: time-kill (killing kinetic) assay; format: cell-based; settings: Fig 7D
[3] = test system: human epidermoid carcinoma cells (A431); format: cell-based; settings: 72 h, 100 μM
Experimental: (§1) Cell viability remained above 70% even at the highest tested concentrations after 72 h of incubation.

[4] = test system: human immortalized keratinocytes (HaCaT); format: cell-based
Experimental: as §1

[5] = test system: human primary dermal fibroblasts (HDF); format: cell-based
Experimental: as §1

A. baumannii ATCC 19606 [6] = assay: murine skin abscess infection model; format: in vivo, mouse (female CD-1); settings: after 4 days; single topical dose at MIC ([…] μM r(P)YLL19, 32 μM D(P)YLL19) 2 h postinfection; CFU of homogenized skin; n = 6
Experimental: Six-week-old female CD-1 mice (Charles River, stock number: 18679700-022) were anesthetized with isoflurane, and the dorsal skin was shaved. A superficial linear abrasion was made using a sterile needle. A 20 μL aliquot of A. baumannii ATCC 19606, grown in LB medium to an optical density at 600 nm (OD600) of 0.5 and then washed twice with sterile PBS (pH 7.4; 9391 g for 2 min), was applied to the abraded area at a final concentration of 3.67 × 10^6 CFU mL^-1. Peptides and antibiotics were diluted in sterile water to their respective MICs and topically applied to the infection site 2 h postinfection. Untreated control mice received 20 μL of sterile PBS. At 2 and 4 days postinfection, animals were euthanized, and the wounded infected skin area was aseptically and uniformly excised. Tissue was homogenized using a bead beater (25 Hz for 20 min), serially diluted 10-fold, and plated on MacConkey agar plates for CFU quantification. Each treatment group included six mice (n = 6), with mice housed individually to prevent cross-contamination. […] Two independent experiments were conducted, each with 3 mice per treatment group. Statistical significance was assessed using one-way ANOVA followed by Dunnett's post hoc test after log10 transformation of CFU counts.

[7] = test system: sheep red blood cells (SRBCs)
A. baumannii ATCC 19606 [8] = settings: for MIC after treatment 12: ATCC 19606; for MIC after treatment 1 / MIC after treatment 2 / MIC after treatment 3 / MIC after treatment 4 / MIC after treatment 5 / MIC after treatment 6 / MIC after treatment 7 / MIC after treatment 8 / MIC after treatment 9 / MIC after treatment 10 / MIC after treatment 11 / MIC after treatment 13 / MIC after treatment 14 / MIC after treatment 15 / MIC after treatment 16 / MIC after treatment 17 / MIC after treatment 18 / MIC after treatment 19 / MIC after treatment 20 / MIC after treatment 21: Table S3; for MIC after treatment 1: serial exposure at MIC/2, treatment 1 of 21; for MIC after treatment 2: serial exposure at MIC/2, treatment 2 of 21; for MIC after treatment 3: serial exposure at MIC/2, treatment 3 of 21; for MIC after treatment 4: serial exposure at MIC/2, treatment 4 of 21; for MIC after treatment 5: serial exposure at MIC/2, treatment 5 of 21; for MIC after treatment 6: serial exposure at MIC/2, treatment 6 of 21; for MIC after treatment 7: serial exposure at MIC/2, treatment 7 of 21; for MIC after treatment 8: serial exposure at MIC/2, treatment 8 of 21; for MIC after treatment 9: serial exposure at MIC/2, treatment 9 of 21; for MIC after treatment 10: serial exposure at MIC/2, treatment 10 of 21; for MIC after treatment 11: serial exposure at MIC/2, treatment 11 of 21; for MIC after treatment 13: serial exposure at MIC/2, treatment 13 of 21; for MIC after treatment 14: serial exposure at MIC/2, treatment 14 of 21; for MIC after treatment 15: serial exposure at MIC/2, treatment 15 of 21; for MIC after treatment 16: serial exposure at MIC/2, treatment 16 of 21; for MIC after treatment 17: serial exposure at MIC/2, treatment 17 of 21; for MIC after treatment 18: serial exposure at MIC/2, treatment 18 of 21; for MIC after treatment 19: serial exposure at MIC/2, treatment 19 of 21; for MIC after treatment 20: serial exposure at MIC/2, treatment 20 of 21; for MIC after treatment 21: serial exposure at MIC/2, treatment 21 of 21
[9] = test system: S. epidermidis ATCC 35984; settings: for MIC after treatment 12: ATCC 35984; for MIC after treatment 1 / MIC after treatment 2 / MIC after treatment 3 / MIC after treatment 4 / MIC after treatment 5 / MIC after treatment 6 / MIC after treatment 7 / MIC after treatment 8 / MIC after treatment 9 / MIC after treatment 10 / MIC after treatment 11 / MIC after treatment 13 / MIC after treatment 14 / MIC after treatment 15 / MIC after treatment 16 / MIC after treatment 17 / MIC after treatment 18 / MIC after treatment 19 / MIC after treatment 20 / MIC after treatment 21: Table S4; for MIC after treatment 1: serial exposure at MIC/2, treatment 1 of 21; for MIC after treatment 2: serial exposure at MIC/2, treatment 2 of 21; for MIC after treatment 3: serial exposure at MIC/2, treatment 3 of 21; for MIC after treatment 4: serial exposure at MIC/2, treatment 4 of 21; for MIC after treatment 5: serial exposure at MIC/2, treatment 5 of 21; for MIC after treatment 6: serial exposure at MIC/2, treatment 6 of 21; for MIC after treatment 7: serial exposure at MIC/2, treatment 7 of 21; for MIC after treatment 8: serial exposure at MIC/2, treatment 8 of 21; for MIC after treatment 9: serial exposure at MIC/2, treatment 9 of 21; for MIC after treatment 10: serial exposure at MIC/2, treatment 10 of 21; for MIC after treatment 11: serial exposure at MIC/2, treatment 11 of 21; for MIC after treatment 13: serial exposure at MIC/2, treatment 13 of 21; for MIC after treatment 14: serial exposure at MIC/2, treatment 14 of 21; for MIC after treatment 15: serial exposure at MIC/2, treatment 15 of 21; for MIC after treatment 16: serial exposure at MIC/2, treatment 16 of 21; for MIC after treatment 17: serial exposure at MIC/2, treatment 17 of 21; for MIC after treatment 18: serial exposure at MIC/2, treatment 18 of 21; for MIC after treatment 19: serial exposure at MIC/2, treatment 19 of 21; for MIC after treatment 20: serial exposure at MIC/2, treatment 20 of 21; for MIC after treatment 21: serial exposure at MIC/2, treatment 21 of 21
[10] = test system: Human coronavirus 229E (HCoV-229E); settings: plaque reduction
[11] = read-out: IC50, co-treatment, Vero-76 cells exposed to virus and peptide simultaneously, 1 h, 37 °C
[12] = read-out: IC50, virus pretreatment, virus incubated with peptide 1 h, 37 °C before infection

## CC[C@@H](C)[C@@H](NC(=O)[C@@H](CCCNC(=N)N)NC(=O)[C@@H](Cc1ccccc1)NC(=O)[C@H](NC(=O)[C@@H](CC(C)C)NC(=O)[C@@H](Cc1c[nH]cn1)NC(=O)[C@@H](CCCCN)NC(=O)[C@@H](CCCCN)NC(=O)[C@@H](CCCNC(=N)N)NC(=O)[C@@H](Cc1c[nH]c2ccccc12)NC(=O)[C@@H](CCCNC(=N)N)NC(=O)CNC(=O)[C@@H](CC(C)C)NC(=O)[C@@H](CC(C)C)NC(=O)[C@@H](CC(C)C)NC(=O)[C@@H](Cc1ccc(O)cc1)NC(=O)[C@H]1CCCN1)[C@H](C)O)C(=O)N[C@H](CC(C)C)C(=O)N[C@H](CC(N)=O)C(=O)N[C@H](CC(C)C)C(=O)O [D(P)YLL19] (H-[dP][dY][dL][dL][dL]G[dR][dW][dR][dK][dK][dH][dL][dT][dF][dR][dI][dL][dN][dL]-OH; N-terminus and C-terminus assumed)
A. baumannii ATCC 19606 [1]
  time to complete bacterial eradication, peptide combined with colistin: ≤ 15 min
[2]
  time to complete bacterial eradication, peptide combined with colistin or polymyxin B: ≤ 15 min
[3]
  cell viability: above 70%
[4]
  reduction in viability: 25–30%
[4]; 72 h, 100 μM
  cell viability: above 70%
[5]
  reduction in viability: 25–30%
[5]; 72 h, 100 μM
  cell viability: above 70%
A. baumannii ATCC 19606 [6]
  reduction in bacterial burden: 3 to 4 orders of magnitude
[7]
  hemolytic activity: no hemolytic activity

## PYLLLGRWRKKHLTFRILNLPSTLPPHTARAALR [r(P)YLL33]
A. baumannii ATCC 19606 [8]
  MIC after treatment 12: 5 µM
  MIC after treatment 1: 5 µM
  MIC after treatment 2: 5 µM
  MIC after treatment 3: 5 µM
  MIC after treatment 4: 5 µM
  MIC after treatment 5: 5 µM
  MIC after treatment 6: 5 µM
  MIC after treatment 7: 5 µM
  MIC after treatment 8: 5 µM
  MIC after treatment 9: 5 µM
  MIC after treatment 10: 5 µM
  MIC after treatment 11: 5 µM
  MIC after treatment 13: 5 µM
  MIC after treatment 14: 5 µM
  MIC after treatment 15: 5 µM
  MIC after treatment 16: 5 µM
  MIC after treatment 17: 5 µM
  MIC after treatment 18: 5 µM
  MIC after treatment 19: 5 µM
  MIC after treatment 20: 5 µM
  MIC after treatment 21: 5 µM
[9]
  MIC after treatment 12: 5 µM
  MIC after treatment 1: 5 µM
  MIC after treatment 2: 5 µM
  MIC after treatment 3: 5 µM
  MIC after treatment 4: 5 µM
  MIC after treatment 5: 5 µM
  MIC after treatment 6: 5 µM
  MIC after treatment 7: 5 µM
  MIC after treatment 8: 5 µM
  MIC after treatment 9: 5 µM
  MIC after treatment 10: 5 µM
  MIC after treatment 11: 5 µM
  MIC after treatment 13: 5 µM
  MIC after treatment 14: 5 µM
  MIC after treatment 15: 5 µM
  MIC after treatment 16: 5 µM
  MIC after treatment 17: 5 µM
  MIC after treatment 18: 5 µM
  MIC after treatment 19: 5 µM
  MIC after treatment 20: 5 µM
  MIC after treatment 21: 5 µM
[10]; [11]
  IC50: 27.8 µM
[10]; [12]
  IC50: 16.4 µM

## PYLLLGRWRKKHLTFRILNL [r(P)YLL19]
A. baumannii ATCC 19606 [8]
  MIC after treatment 12: 5 µM
  MIC after treatment 1: 5 µM
  MIC after treatment 2: 5 µM
  MIC after treatment 3: 5 µM
  MIC after treatment 4: 5 µM
  MIC after treatment 5: 5 µM
  MIC after treatment 6: 5 µM
  MIC after treatment 7: 5 µM
  MIC after treatment 8: 5 µM
  MIC after treatment 9: 5 µM
  MIC after treatment 10: 5 µM
  MIC after treatment 11: 5 µM
  MIC after treatment 13: 5 µM
  MIC after treatment 14: 5 µM
  MIC after treatment 15: 5 µM
  MIC after treatment 16: 5 µM
  MIC after treatment 17: 5 µM
  MIC after treatment 18: 5 µM
  MIC after treatment 19: 5 µM
  MIC after treatment 20: 5 µM
  MIC after treatment 21: 5 µM
[9]
  MIC after treatment 12: 5 µM
  MIC after treatment 1: 5 µM
  MIC after treatment 2: 5 µM
  MIC after treatment 3: 5 µM
  MIC after treatment 4: 5 µM
  MIC after treatment 5: 5 µM
  MIC after treatment 6: 5 µM
  MIC after treatment 7: 5 µM
  MIC after treatment 8: 5 µM
  MIC after treatment 9: 5 µM
  MIC after treatment 10: 5 µM
  MIC after treatment 11: 5 µM
  MIC after treatment 13: 5 µM
  MIC after treatment 14: 5 µM
  MIC after treatment 15: 5 µM
  MIC after treatment 16: 5 µM
  MIC after treatment 17: 5 µM
  MIC after treatment 18: 5 µM
  MIC after treatment 19: 5 µM
  MIC after treatment 20: 5 µM
  MIC after treatment 21: 5 µM
[10]; [11]
  IC50: 12.5 µM
[10]; [12]
  IC50: 0.56 µM
